From patent publication US12545673B2, “Imidazopyridine derivative and pharmaceutical composition comprising same as active ingredient” (TSD LIFE SCIENCES CO., LTD., priority 2019, dated 2026)
Like-named read-outs stand apart in the source and are kept apart here.

Legend:
[1] = biological target: MLK1 (Homo sapiens (Human), UniProt P80192); test: Evaluation of inhibitory activity of enzyme units, MLK1 ([γ-33P]-ATP filter assay); type: biochemical
[2] = system: gastric cancer cell line AGS; test: Cancer cell proliferation inhibitory activity evaluation 2 (CCK-8), AGS; type: cell-based; conditions: Homo sapiens, read-out: Cancer cell proliferation inhibitory activity AGS
[3] = system: acute myeloid leukemia cell line U937; test: Cancer cell proliferation inhibitory activity evaluation 2 (CCK-8), U937; type: cell-based; conditions: Homo sapiens, read-out: Cancer cell proliferation inhibitory activity U937
[4] = biological target: MLK3 (Homo sapiens (Human), UniProt Q16584); test: Evaluation of inhibitory activity of enzyme units, MLK3 ([γ-33P]-ATP filter assay); conditions: read-out: IC50(nM) MLK3
Sequence of MLK3 (Q16584 whole entry, looked up): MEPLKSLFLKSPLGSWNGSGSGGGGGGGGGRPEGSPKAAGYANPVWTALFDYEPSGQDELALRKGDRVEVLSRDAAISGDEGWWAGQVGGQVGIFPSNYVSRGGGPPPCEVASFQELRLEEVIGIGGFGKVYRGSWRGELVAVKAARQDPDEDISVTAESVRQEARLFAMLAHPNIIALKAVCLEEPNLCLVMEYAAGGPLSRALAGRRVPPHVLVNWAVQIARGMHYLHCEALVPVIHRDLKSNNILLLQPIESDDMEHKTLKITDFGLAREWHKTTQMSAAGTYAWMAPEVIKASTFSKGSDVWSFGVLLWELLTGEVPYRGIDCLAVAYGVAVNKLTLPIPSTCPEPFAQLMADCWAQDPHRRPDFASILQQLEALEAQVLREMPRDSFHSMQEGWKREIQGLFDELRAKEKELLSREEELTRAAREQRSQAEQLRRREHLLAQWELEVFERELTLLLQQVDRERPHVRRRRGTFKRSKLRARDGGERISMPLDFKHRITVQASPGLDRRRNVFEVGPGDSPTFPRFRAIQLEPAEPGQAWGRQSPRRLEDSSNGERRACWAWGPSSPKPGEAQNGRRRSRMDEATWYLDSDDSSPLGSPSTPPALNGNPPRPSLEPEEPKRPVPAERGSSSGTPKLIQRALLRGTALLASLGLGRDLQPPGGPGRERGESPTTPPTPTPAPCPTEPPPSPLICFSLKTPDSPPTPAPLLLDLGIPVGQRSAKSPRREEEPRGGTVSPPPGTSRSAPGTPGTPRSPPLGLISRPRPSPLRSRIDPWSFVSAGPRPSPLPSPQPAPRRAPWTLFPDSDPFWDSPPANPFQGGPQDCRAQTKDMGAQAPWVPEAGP

[5] = system: acute lymphoblastic leukemia cell line Jurkat; test: Cancer cell proliferation inhibitory activity evaluation 2 (CCK-8), Jurkat; type: cell-based; conditions: Homo sapiens
[6] = biological target: MLK2 (Homo sapiens (Human), UniProt Q02779); test: Evaluation of inhibitory activity of enzyme units, MLK2 ([γ-33P]-ATP filter assay); type: biochemical
Sequence of MLK2 (Q02779 whole entry, looked up): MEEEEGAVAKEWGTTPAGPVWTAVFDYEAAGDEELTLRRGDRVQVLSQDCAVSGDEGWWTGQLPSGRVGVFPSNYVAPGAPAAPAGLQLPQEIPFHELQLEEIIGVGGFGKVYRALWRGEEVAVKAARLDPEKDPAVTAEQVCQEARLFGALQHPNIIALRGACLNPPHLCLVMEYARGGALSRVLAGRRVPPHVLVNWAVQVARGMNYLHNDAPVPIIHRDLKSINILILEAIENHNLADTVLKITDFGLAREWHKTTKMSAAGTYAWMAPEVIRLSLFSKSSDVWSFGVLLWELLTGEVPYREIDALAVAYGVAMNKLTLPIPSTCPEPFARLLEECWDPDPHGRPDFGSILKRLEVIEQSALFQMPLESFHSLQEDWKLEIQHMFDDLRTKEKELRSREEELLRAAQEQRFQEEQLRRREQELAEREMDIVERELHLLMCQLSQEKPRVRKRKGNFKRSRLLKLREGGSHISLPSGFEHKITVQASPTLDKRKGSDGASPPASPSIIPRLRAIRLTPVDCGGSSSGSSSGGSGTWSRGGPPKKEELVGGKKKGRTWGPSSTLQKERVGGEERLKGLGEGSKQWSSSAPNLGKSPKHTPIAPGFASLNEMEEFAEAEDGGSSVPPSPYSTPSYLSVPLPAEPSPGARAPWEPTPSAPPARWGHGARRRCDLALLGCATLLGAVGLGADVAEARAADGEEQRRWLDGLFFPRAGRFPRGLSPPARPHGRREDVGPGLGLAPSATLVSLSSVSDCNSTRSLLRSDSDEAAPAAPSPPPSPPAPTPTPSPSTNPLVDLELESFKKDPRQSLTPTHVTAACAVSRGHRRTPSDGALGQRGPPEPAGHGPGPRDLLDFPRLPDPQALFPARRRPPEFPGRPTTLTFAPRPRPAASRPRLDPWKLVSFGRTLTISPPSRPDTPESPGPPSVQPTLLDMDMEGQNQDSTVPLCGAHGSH

[7] = biological target: LRRK2 wild-type (Homo sapiens (Human), UniProt Q5S007); test: Evaluation of inhibitory activity against LRRK2 (affinity bead competition binding), wild-type; conditions: read-out: Residual active values (%) LRRK2; for remaining binding at 0.1 µM: 100 nM; for remaining binding at 0.5 µM: 500 nM
Sequence of LRRK2 wild-type (Q5S007 whole entry, looked up): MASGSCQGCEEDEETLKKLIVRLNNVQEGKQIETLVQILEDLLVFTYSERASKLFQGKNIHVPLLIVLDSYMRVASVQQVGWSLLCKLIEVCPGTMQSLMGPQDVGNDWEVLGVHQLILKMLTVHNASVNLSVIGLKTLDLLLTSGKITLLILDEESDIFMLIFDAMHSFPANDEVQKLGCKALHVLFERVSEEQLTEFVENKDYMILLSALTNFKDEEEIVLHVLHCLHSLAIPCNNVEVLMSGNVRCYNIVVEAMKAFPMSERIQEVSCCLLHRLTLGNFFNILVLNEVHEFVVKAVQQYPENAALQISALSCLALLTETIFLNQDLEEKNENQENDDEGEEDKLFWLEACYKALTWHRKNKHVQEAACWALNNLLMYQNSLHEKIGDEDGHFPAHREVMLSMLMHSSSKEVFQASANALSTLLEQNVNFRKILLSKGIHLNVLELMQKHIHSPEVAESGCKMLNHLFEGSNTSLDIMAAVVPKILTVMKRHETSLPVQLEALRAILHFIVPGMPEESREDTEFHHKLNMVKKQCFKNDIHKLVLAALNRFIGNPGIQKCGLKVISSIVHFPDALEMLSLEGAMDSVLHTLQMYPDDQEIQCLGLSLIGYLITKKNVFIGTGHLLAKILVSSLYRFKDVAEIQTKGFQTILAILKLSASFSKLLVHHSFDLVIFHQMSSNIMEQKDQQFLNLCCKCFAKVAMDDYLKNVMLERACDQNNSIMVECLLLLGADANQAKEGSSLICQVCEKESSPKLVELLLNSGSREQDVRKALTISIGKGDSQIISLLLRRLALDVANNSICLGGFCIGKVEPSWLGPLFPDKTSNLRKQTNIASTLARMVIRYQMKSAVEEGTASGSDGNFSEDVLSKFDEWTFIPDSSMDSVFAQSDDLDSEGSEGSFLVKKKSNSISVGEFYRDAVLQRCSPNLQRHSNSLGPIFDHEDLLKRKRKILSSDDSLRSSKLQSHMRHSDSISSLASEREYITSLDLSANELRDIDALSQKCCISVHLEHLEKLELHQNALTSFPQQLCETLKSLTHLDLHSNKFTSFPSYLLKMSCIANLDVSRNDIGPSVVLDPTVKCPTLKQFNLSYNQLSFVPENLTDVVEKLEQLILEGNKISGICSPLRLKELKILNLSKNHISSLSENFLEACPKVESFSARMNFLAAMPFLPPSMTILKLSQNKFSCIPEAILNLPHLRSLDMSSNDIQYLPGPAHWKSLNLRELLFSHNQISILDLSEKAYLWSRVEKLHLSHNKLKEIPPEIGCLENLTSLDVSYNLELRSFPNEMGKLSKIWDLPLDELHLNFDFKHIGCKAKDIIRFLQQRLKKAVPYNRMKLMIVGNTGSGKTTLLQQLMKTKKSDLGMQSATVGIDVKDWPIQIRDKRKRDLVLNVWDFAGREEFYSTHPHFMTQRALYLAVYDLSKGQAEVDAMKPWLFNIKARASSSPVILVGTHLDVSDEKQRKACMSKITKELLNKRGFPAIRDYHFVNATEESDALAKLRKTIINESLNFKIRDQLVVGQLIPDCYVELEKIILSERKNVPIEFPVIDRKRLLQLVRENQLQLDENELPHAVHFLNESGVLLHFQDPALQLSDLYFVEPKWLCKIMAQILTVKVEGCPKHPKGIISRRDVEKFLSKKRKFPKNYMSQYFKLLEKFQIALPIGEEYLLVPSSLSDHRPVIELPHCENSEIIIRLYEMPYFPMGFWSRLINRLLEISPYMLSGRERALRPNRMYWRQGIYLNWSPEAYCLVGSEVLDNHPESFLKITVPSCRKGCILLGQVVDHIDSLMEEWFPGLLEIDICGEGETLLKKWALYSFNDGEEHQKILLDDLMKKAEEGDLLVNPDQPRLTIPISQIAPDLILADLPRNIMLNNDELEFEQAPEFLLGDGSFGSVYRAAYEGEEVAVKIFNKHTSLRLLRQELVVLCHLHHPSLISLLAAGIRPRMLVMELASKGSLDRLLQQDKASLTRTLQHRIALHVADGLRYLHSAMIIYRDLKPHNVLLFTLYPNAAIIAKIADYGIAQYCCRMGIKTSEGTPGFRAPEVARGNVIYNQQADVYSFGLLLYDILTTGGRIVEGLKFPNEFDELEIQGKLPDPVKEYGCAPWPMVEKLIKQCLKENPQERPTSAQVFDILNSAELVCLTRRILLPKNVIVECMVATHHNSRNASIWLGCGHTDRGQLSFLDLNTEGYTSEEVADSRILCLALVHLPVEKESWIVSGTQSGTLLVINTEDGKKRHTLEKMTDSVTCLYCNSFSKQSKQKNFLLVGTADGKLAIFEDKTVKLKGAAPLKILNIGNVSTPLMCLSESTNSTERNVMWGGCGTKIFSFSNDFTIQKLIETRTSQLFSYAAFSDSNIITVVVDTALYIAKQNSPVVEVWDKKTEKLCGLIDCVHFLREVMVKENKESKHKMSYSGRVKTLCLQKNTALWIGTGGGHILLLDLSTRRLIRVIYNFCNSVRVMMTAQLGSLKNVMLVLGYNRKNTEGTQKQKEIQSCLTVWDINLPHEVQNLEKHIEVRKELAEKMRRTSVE
Procedure: (§1) In order to identify the activity inhibitory effect on the LRRK2 wild-type and LRRK2 mutant (G2019S) kinase of the example compound according to the present disclosure, BL21-derived E. coli bacteria (E. coli) were cultured in a 24-well plate until the growth phase (log phase). After culturing, T7 phage tagged with LRRK2 wild-type or LRRK2 mutant (G2019S) was used to infect the multiplicity of infection (MOI) at 0.4. Thereafter, the E. coli bacteria were stirred at 32° C. for 90 to 150 minutes to allow dissolution. The lysate of E. coli bacteria was centrifuged (6,000×g) and filtered (0.2 μm), and the obtained tagged T7 phage […] a DNA-tagged kinase protein (LRRK2 or LRRK2 G2019S) was obtained.
(§2) After blocking the biotinylated ligand with extra biotin, it is washed with Pierce's buffer, SeaBlock (1% BSA, 0.05% Tween 20, 1 mM DTT) to remove unbound ligand and reduce non-specific binding.
(§3) The compound was prepared at a concentration of 40× in 100% DMSO and used after dilution, and all binding reactions were performed in a final volume of 0.02 ml in a 384-well plate.
(§4) The activity inhibitory effect on the LRRK2 wild-type and LRRK2 mutant (G2019S) kinases of the example compounds according to the present disclosure was measured and shown in Table 10 below.

[8] = biological target: LRRK2 mutant (G2019S) (Homo sapiens (Human), UniProt Q5S007, G2019S); test: Evaluation of inhibitory activity against LRRK2 (affinity bead competition binding), G2019S mutant; conditions: read-out: Residual active values (%) LRRK2(G2019S); for remaining binding at 0.1 µM: 100 nM; for remaining binding at 0.5 µM: 500 nM
Sequence of LRRK2 mutant (G2019S) (Q5S007 whole entry G2019S, looked up): as the sequence (Q5S007 whole entry, looked up) above, with G2019S counted along it
Procedure: as §1, §2, §3, §4

[9] = system: Fibronectin-1; test: Fibrosis inhibition evaluation 2, palmitic acid-induced HepG2, real-time PCR, Fibronectin-1
[10] = system: α-SMA; test: Fibrosis inhibition evaluation 2, palmitic acid-induced HepG2, real-time PCR, α-SMA; conditions: palmitic acid-induced HepG2 (Table 8)
[11] = system: TGF-β1; test: Fibrosis inhibition evaluation 2, palmitic acid-induced HepG2, real-time PCR, TGF-β1
[12] = system: human lung cancer cell line A549; test: Cancer cell proliferation inhibitory activity evaluation 2 (CCK-8), A549; type: cell-based; conditions: A549, 72 h, read-out: Cancer cell proliferation inhibitory activity A549
[13] = system: gastric cancer cell line Hs746T; test: Cancer cell proliferation inhibitory activity evaluation 2 (CCK-8), Hs746T; type: cell-based; conditions: Homo sapiens, 72 h, read-out: Cancer cell proliferation inhibitory activity Hs746T
[14] = U-937, 10 μM, 72 hours, CCK-8 (Table 3)
[15] = 10 μM, 72 hours, CCK-8, read-out: Cancer cell proliferation inhibitory activity Jurkat
[16] = 72 h, read-out: Cancer cell proliferation inhibitory activity Jurkat

SMILES	IC50 [1] [nM]	inhibition at 10 µM ([2]; 10 μM, 72 hours, CCK-8) [%]	inhibition at 10 µM [3, 14] [%]	IC50 [4] [nM]	inhibition at 10 µM [5, 15] [%]	IC50 [6] [nM]	remaining binding at 0.1 µM [7] [%]	remaining binding at 0.5 µM [7] [%]	remaining binding at 0.1 µM [8] [%]	remaining binding at 0.5 µM [8] [%]	Relative degree of expression inhibition (%) Fibronectin-1 [9] [%]	Relative degree of expression inhibition (%) α-SMA [10] [%]	Relative degree of expression inhibition (%) TGF-β1 [11] [%]	inhibition at 10 µM ([2]; 72 h) [%]	inhibition at 10 µM ([3]; U-937, 72 h) [%]	inhibition at 10 µM [5, 16] [%]	inhibition at 10 µM [12] [%]	inhibition at 10 µM [13] [%]
Cc1cc(-c2nc3c(Nc4cccc(S(N)(=O)=O)c4)c(Br)cnc3[nH]2)c(C)n1-c1ccc(C(=O)N2CCOCC2)cc1 [Example 27, 3-((6-bromo-2-(2,5-dimethyl-1-(4-(morpholine-4-carbonyl)phenyl)-1H-pyrrol-3-yl)-3H-imidazo[4,5-b]pyridine-7-yl)amino)benzenesulfonamide]	176	10 to 50	< 10	20	< 10	178	–	–	–	–	–	–	–	–	–	–	–	–
CCS(=O)(=O)N1CC[C@H](Nc2c(Br)cnc3[nH]c(-c4cc(C)n(-c5ccccc5)c4C)nc23)C1 [Example 25, (S)-6-bromo-2-(2,5-dimethyl-1-phenyl-1H-pyrrol-3-yl)-N-(1-(ethylsulfonyl)pyrrolidine-3-yl)-3H-imidazo[4,5-b]pyridine-7-amine]	71	> 50	10 to 50	26	> 50	250	49	17	15	3.3	–	–	–	–	–	–	–	–
CCS(=O)(=O)N1CC[C@H](Nc2ccnc3nc(-c4cc(C)n(-c5ccc(OCCN6CCOCC6)cc5)c4C)[nH]c23)C1 [Example 53, (S)-2-(2,5-dimethyl-1-(4-(2-morpholinoethoxy)phenyl)-1H-pyrrol-3-yl)-N-(1-(ethylsulfonyl)pyrrolidine-3-yl)-1H-imidazo[4,5-b]pyridine-7-amine]	10600	–	–	23200	–	–	–	–	–	–	69.92	74.74	33.15	–	–	–	–	–
CCS(=O)(=O)N1CC[C@H](Nc2c(Br)cnc3nc(-c4cc(C)n(-c5cccc(C(N)=O)c5)c4C)[nH]c23)C1 [Example 20, (S)-3-(3-(6-bromo-7-((1-(ethylsulfonyl)pyrrolidine-3-yl)amino)-1H-imidazo[4,5-b]pyridine-2-yl)-2,5-dimethyl-1H-pyrrol-1-yl)benzamide]	31	–	–	14	–	217	–	–	–	–	–	–	–	10 to 50	< 10	10 to 50	–	–
CCS(=O)(=O)N1CC[C@H](Nc2c(Br)cnc3nc(-c4cc(C)n(-c5cccc(S(=O)(=O)NC)c5)c4C)[nH]c23)C1 [Example 18, (S)-3-(3-(6-bromo-7-((1-(ethylsulfonyl)pyrrolidine-3-yl)amino)-1H-imidazo[4,5-b]pyridine-2-yl)-2,5-dimethyl-1H-pyrrol-1-yl)-N-methylbenzenesulfonamide]	75	–	–	13	–	109	–	–	–	–	–	–	–	> 50	–	–	10 to 50	10 to 50
CCS(=O)(=O)N1CC[C@H](Nc2c(Br)cnc3nc(-c4cc(C)n(-c5ccc(OCCOC)cc5)c4C)[nH]c23)C1 [Example 22, (S)-6-bromo-N-(1-(ethylsulfonyl)pyrrolidine-3-yl)-2-(1-(4-(2-methoxyethoxy)phenyl)-2,5-dimethyl-1H-pyrrol-3-yl)-1H-imidazo[4,5-b]pyridine-7-amine]	38	10 to 50	–	17	–	186	–	–	–	–	–	–	–	–	–	–	–	–
CCS(=O)(=O)N1CC[C@H](Nc2c(Br)cnc3nc(-c4cc(C)n(-c5cccc(OCCOC)c5)c4C)[nH]c23)C1 [Example 21, (S)-6-bromo-N-(1-(ethylsulfonyl)pyrrolidine-3-yl)-2-(1-(3-(2-methoxyethoxy)phenyl)-2,5-dimethyl-1H-pyrrol-3-yl)-1H-imidazo[4,5-b]pyridine-7-amine]	75	–	–	15	–	243	–	–	–	–	–	–	–	> 50	10 to 50	10 to 50	–	–
CCS(=O)(=O)N1CC[C@H](Nc2c(Br)cnc3nc(-c4cc(C)n(-c5ccc(S(N)(=O)=O)cc5)c4C)[nH]c23)C1 [Example 24, (S)-4-(3-(6-bromo-7-((1-(ethylsulfonyl)pyrrolidine-3-yl)amino)-1H-imidazo[4,5-b]pyridine-2-yl)-2,5-dimethyl-1H-pyrrol-1-yl)benzenesulfonamide]	29	–	–	20	–	95	–	–	–	–	–	–	–	10 to 50	10 to 50	10 to 50	–	–
CCNS(=O)(=O)c1cccc(-n2c(C)cc(-c3nc4ncc(Br)c(N[C@H]5CCN(S(=O)(=O)CC)C5)c4[nH]3)c2C)c1 [Example 19, (S)-3-(3-(6-bromo-7-((1-(ethylsulfonyl)pyrrolidine-3-yl)amino)-1H-imidazo[4,5-b]pyridine-2-yl)-2,5-dimethyl-1H-pyrrol-1-yl)-N-ethylbenzenesulfonamide]	36	–	–	14	–	90	–	–	–	–	–	–	–	> 50	> 50	> 50	–	–
Cc1cc(-c2nc3c(Nc4cccc(S(N)(=O)=O)c4)c(Br)cnc3[nH]2)c(C)n1-c1cc(S(N)(=O)=O)ccc1Cl [Example 36, 3-(3-(6-bromo-7-((3-sulfamoylphenyl)amino)-3H-imidazo[4,5-b]pyridine-2-yl)-2,5-dimethyl-1H-pyrrole-1-yl)-4-chlorobenzenesulfonamide]	–	< 10	< 10	46	< 10	–	–	–	–	–	82.94	79.46	66.72	–	–	–	–	–
CCS(=O)(=O)N1CC[C@H](Nc2c(Br)cnc3nc(-c4cc(C)n(-c5cc(NC(=O)CN6CCN(C)CC6)ccc5C)c4C)[nH]c23)C1 [Example 76, N-(3-(3-(6-bromo-7-(((S)-1-(ethylsulfonyl)pyrrolidine-3-yl)amino)-1H-imidazo[4,5-b]pyridine-2-yl)-2,5-dimethyl-1H-pyrrol-1-yl)-4-methylphenyl)-2-(4-methylpiperazine-1-yl) acetamide]	–	–	–	63	–	–	3.6	1.1	0.9	0.1	93.95	69.54	121.79	–	–	–	–	–
CCS(=O)(=O)N1CC[C@H](Nc2c(Br)cnc3[nH]c(-c4cc(C)n(-c5ccc(C(=O)N6CCOCC6)cc5)c4C)nc23)C1 [Example 5, (S)-(4-(3-(6-bromo-7-((1-(ethylsulfonyl)pyrrolidine-3-yl)amino)-3H-imidazo[4,5-b]pyridine-2-yl)-2,5-dimethyl-1H-pyrrol-1-yl)phenyl) (morpholino) methanone]	–	–	–	6	–	92	–	–	–	–	–	–	–	–	–	–	–	–
CCS(=O)(=O)N1CC[C@H](Nc2c(Br)cnc3[nH]c(-c4cc(C)n(-c5cccc(S(=O)(=O)N6CCOCC6)c5)c4C)nc23)C1 [Example 11, (S)-6-bromo-2-(2,5-dimethyl-1-(3-(morpholinosulfonyl)phenyl)-1H-pyrrol-3-yl)-N-(1-(ethylsulfonyl)pyrrolidine-3-yl)-3H-imidazo[4,5-b]pyridine-7-amine]	–	–	–	7	–	–	28	6.9	7.9	1.7	86.85	24.73	99.40	> 50	10 to 50	> 50	–	–
